Test results as given in US7211577B2, “Water-soluble phenylpyridazine derivative and medicine containing the same” (Kowa Co., Ltd., priority 2003, dated 2007).
Where a name gives a salt, the structure may show the parent alone. Read-outs that look alike come from different tables or passages of the source.

Tests used:
[1] = test system: interleukin-1β production; assay: Inhibitory activity against interleukin-1β production (LPS-stimulated HL-60 cells, ELISA); assay type: cell-based; conditions: Table 1, lipopolysaccharide 10 μg/mL, culturing for 3 days, read-out: IL-1β production inhibiting activity IC50
Procedure: Inhibitory Activity Against Interleukin-1β Production
HL-60 cells were cultured for 4 days until confluence on RPMI 1640 medium with 10% fetal bovine serum (FBS) added thereto. The medium was centrifuged. The supernatant was discarded, and the cells were then suspended at 1×10^6 cells/mL on RPMI 1640 medium with 3% FBS, and lipopolysaccharide was added to give a final concentration of 10 μg/mL. The culture was inoculated at 1 mL/well to a 24-well plate. A sample compound was added at 1 μL/well, followed by culturing for 3 days. Three days later, the amount of interleukin-1β in each culture was determined by ELISA. Each IC50 value was determined by a comparison in yield with a control to which no test sample was added.

[2] = Water solubility test; assay type: physicochemical; conditions: for Solubility (%): purified water, from amount of water required for dissolution; for Dissolution in the added water (in words): 100 mL purified water added
Procedure: Experiment 2 (Water Solubility Test) Testing Method
Each sample compound was weighed in the amount shown in Table 3, to which purified water was added in 0.05 mL aliquots. The solubility (%) of the compound was determined based on the amount of water required for its dissolution.

[3] = Oral absorbability test on rats and/or mice; assay type: in vivo; conditions: orally administered to mice and/or rats, as in Experiment 3
Excerpt: Experiment 4 (Oral Absorbability Test on Rats and/or Mice)
In a similar manner as in Experiment 3, test compounds of Examples 23, 25, 143, 193, 245, 246, 247, 248 and 249 were orally administered to mice and/or rats to test their oral absorbability.

[4] = Oral absorbability test on rats (plasma levels by HPLC); assay type: in vivo; conditions: male SD rats, oral 10 mg/5 mL/kg, suspension in 0.5% MC, plasma 0.25-8 hours
Procedure: Experiment 3 (Oral Absorbability Test on Rats)
The compound of Example 83 and the comparative compound 3 were suspended at 2 mg/mL with a 0.5% MC solution in mortars, respectively, and were orally administered to male SD rats at 10 mg/5 mL/kg. Upon elapsed time of 0.25, 0.5, 1, 2, 4, 6 and 8 hours after the administration, blood samples were collected and then centrifuged to provide plasma samples. The plasma levels of the respective compounds were determined by HPLC. […] The compound of Example 83 is, therefore, useful as an orally dosable medicine.

Row | Compound | Solubility (%) [2] [%] | Oral absorbability (FIGS. 2 to 6) [3] | other results
1 | COc1ccc(-c2cc(CN(C)C)c(=O)n(CC3CC3)n2)cc1F.Cl [Example 14, 2-cyclopropylmethyl-4-dimethylaminomethyl-6-(3-fluoro-4-methoxyphenyl)-2H-pyridazin-3-one hydrochloride] | 0.8 |  | IC50 ([1]; Homo sapiens, 72 h): 3.61 µM
2 | COc1ccc(-c2cc(CN(CCO)CCO)c(=O)n(CC3CC3)n2)cc1F.Cl [Example 23, 4-N,N-bis(2-hydroxyethyl)aminomethyl-2-cyclopropylmethyl-6-(3-fluoro-4-methoxyphenyl)-2H-pyridazin-3-one hydrochloride] | 10 | good absorbability | IC50 [1]: 0.33 µM
3 | COc1ccc(-c2cc(CN)c(=O)n(CC3CC3)n2)cc1F.Cl [Example 25, 4-aminomethyl-2-cyclopropylmethyl-6-(3-fluoro-4-methoxyphenyl)-2H-pyridazin-3-one hydrochloride] | 0.4 | good absorbability | 
4 | Cc1ccc(-c2cc(CN(CCO)CCO)c(=O)n(CC(C)C)n2)cc1 [Example 49, 4-N,N-bis(2-hydroxyethyl)aminomethyl-6-(4-methylphenyl)-2-isobutyl-2H-pyridazin-3-one hydrochloride] |  |  | IC50 [1]: 3.53 µM
5 | Cc1cc(-c2cc(CN3CCN(C)CC3)c(=O)n(CC(C)C)n2)ccc1F.Cl.Cl [Example 83, 6-(4-fluoro-3-methylphenyl)-2-isobutyl-4-(4-methyl-1-piperazinyl)methyl-2H-pyridazin-3-one dihydrochloride] |  |  | Oral absorption (plasma levels, FIG. 1) [4]: good absorption
6 | CC(C)Cn1nc(-c2ccc(F)c(F)c2)cc(CN(CCO)CCO)c1=O.Cl [Example 108, 4-N,N-bis(2-hydroxyethyl)aminomethyl-6-(3,4-difluorophenyl)-2-isobutyl-2H-pyridazin-3-one hydrochloride] | >20 |  | IC50 [1]: 3.44 µM
7 | Cc1cc(-c2cc(CN3CCN(C)CC3)c(=O)n(CC=Cc3ccc(Cl)cc3)n2)ccc1F.Cl.Cl [Example 143, 2-(4-chlorocinnamyl)-6-(4-fluoro-3-methylphenyl)-4-(4-methyl-1-piperazinyl)methyl-2H-pyridazin-3-one dihydrochloride] | 10 | good absorbability | melting point: 229.7 to 243.3 °C (dec.)
8 | CSc1ccc(-c2cc(CN3CCN(C)CC3)c(=O)n(CC3CC3)n2)cc1.Cl.Cl [Example 149, 2-cyclopropylmethyl-4-(4-methyl-1-piperazinyl)methyl-6-[4-(methylthio)phenyl]-2H-pyridazin-3-one dihydrochloride] | >10 |  | melting point: 234.6 to 239.2 °C

More lines, main results first:

Row | Solubility (%) [2] [%] | Oral absorbability (FIGS. 2 to 6) [3] | Compound | other results
9 | 0.5 |  | CSc1ccc(-c2cc(CN(C)C)c(=O)n(CC3CC3)n2)cc1.Cl [Example 153, 2-cyclopropylmethyl-4-dimethylaminomethyl-6-[4-(methylthio)phenyl]-2H-pyridazin-3-one hydrochloride] | melting point: 230.2 to 232.3 °C; IC50 ([1]; Homo sapiens, 72 h): 0.58 µM
10 | 5 | good absorbability | COc1ccc(-c2cc(CN3CCNCC3)c(=O)n(Cc3ccc(F)cc3)n2)cc1F.Cl.Cl [Example 193, 2-(4-fluorobenzyl)-6-(3-fluoro-4-methoxyphenyl)-4-(1-piperazinyl)methyl-2H-pyridazin-3-one dihydrochloride] | 
11 | 10 | good absorbability | COc1ccc(-c2cc(CN3CCN(C)CC3)c(=O)n(Cc3ccc(F)c(F)c3)n2)cc1F.Cl.Cl [Example 245, 2-(3,4-difluorobenzyl)-6-(3-fluoro-4-methoxyphenyl)-4-(4-methyl-1-piperazinyl)methyl-2H-pyridazin-3-one dihydrochloride] | 
12 | 2 | good absorbability | COc1ccc(-c2cc(CN(C)C)c(=O)n(Cc3ccc(F)c(F)c3)n2)cc1F.Cl [Example 246, 2-(3,4-difluorobenzyl)-4-dimethylaminomethyl-6-(3-fluoro-4-methoxyphenyl)-2H-pyridazin-3-one hydrochloride] | 
13 | 10 | good absorbability | Cc1cc(-c2cc(CN3CCN(C)CC3)c(=O)n(CCCc3ccc(Cl)cc3)n2)ccc1F.Cl.Cl [Example 247, 2-[3-(4-chlorophenyl)propyl]-6-(4-fluoro-3-methylphenyl)-4-(4-methyl-1-piperazinyl)methyl-2H-pyridazin-3-one dihydrochloride] | 
14 | 0.06 | good absorbability | COc1ccc(-c2cc(CN3CCN(C)CC3)c(=O)n(CC=Cc3ccc(Cl)cc3)n2)cc1F.Cl.Cl [Example 248, 2-(4-chlorocinnamyl)-6-(3-fluoro-4-methoxyphenyl)-4-(4-methyl-1-piperazinyl)methyl-2H-pyridazin-3-one dihydrochloride] | 
15 | 0.03 | good absorbability | COc1ccc(-c2cc(CN3CCN(CCO)CC3)c(=O)n(CC=Cc3ccc(Cl)cc3)n2)cc1F.Cl.Cl [Example 249, 2-(4-chlorocinnamyl)-6-(3-fluoro-4-methoxyphenyl)-4-[4-(2-hydroxyethyl)-1-piperazinyl]methyl-2H-pyridazin-3-one dihydrochloride] | 
16 | <0.001 |  | CCOC(=O)Nc1cc(-c2ccc(OC)cc2)nn(C/C=C/c2ccc(Cl)cc2)c1=O [compound 1, reference compound] | Dissolution in the added water (in words) [2]: (insoluble)
17 | <0.001 |  | CNC(=O)c1cc(-c2ccc(OC)cc2)nn(CC(C)C)c1=O [compound 2, reference compound] | Dissolution in the added water (in words) [2]: (insoluble)
18 | <0.001 |  | CNC(=O)c1cc(-c2ccc(OC)c(F)c2)nn(CC2CC2)c1=O [compound 3, reference compound] | Oral absorption (plasma levels, FIG. 1) [4]: no substantial absorption; Dissolution in the added water (in words) [2]: (insoluble)
19 | <0.001 |  | COc1ccc(-c2cc(C(=O)O)c(=O)n(C/C=C/c3ccc(Cl)cc3)n2)cc1 [compound 4, reference compound] | Dissolution in the added water (in words) [2]: (insoluble)
